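Where inhibition never reached the appropriate level, the endpoint shown equals the highest concentration tested. Otherwise, values were interpolated linearly from a five-concentration, 48-hour dose response in 96-well plates. GI50 marks 50% less growth.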 The source made the active and inactive calls. Cut-off read from the data, not from the text of the source: active = GI50 up to about 1.1 µM and inactive = higher.
How the values were obtained:
Experiment in all cases: DTP human tumour cell line panel, 48 h
HL-60 = system: HL-60
MDA-N = system: MDA-N
MDA-MB-435 = system: MDA-MB-435
UACC-257 = system: UACC-257
U-251 = system: U-251
BT-549 = system: BT-549
NCI-H460 = system: NCI-H460
UACC-62 = system: UACC-62
SW-620 = system: SW-620
LOX IMVI = system: LOX IMVI
SK-MEL-28 = system: SK-MEL-28
HOP-62 = system: HOP-62
A549 = system: A549
SF-295 = system: SF-295
NCI-H226 = system: NCI-H226
K562 = system: K562
Hs-578T = system: Hs-578T
KM12 = system: KM12
CAKI-1 = system: CAKI-1
RPMI-8226 = system: RPMI-8226
SK-MEL-2 = system: SK-MEL-2
HCT-116 = system: HCT-116
NCI-H23 = system: NCI-H23
SF-539 = system: SF-539
M14 = system: M14
SNB-75 = system: SNB-75
SF-268 = system: SF-268
COLO 205 = system: COLO 205
SK-OV-3 = system: SK-OV-3
MDA-MB-231 = system: MDA-MB-231
OVCAR-5 = system: OVCAR-5
OVCAR-8 = system: OVCAR-8
OVCAR-3 = system: OVCAR-3
A498 = system: A498
RXF 393 = system: RXF 393
Malme-3M = system: Malme-3M
EKVX = system: EKVX
NCI-H522 = system: NCI-H522
HOP-92 = system: HOP-92
T47D = system: T47D
SNB-19 = system: SNB-19
ACHN = system: ACHN
SK-MEL-5 = system: SK-MEL-5
CCRF-CEM = system: CCRF-CEM
HT-29 = system: HT-29
NCI/ADR-RES = system: NCI/ADR-RES
PC-3 = system: PC-3
IGROV-1 = system: IGROV-1
MCF7 = system: MCF7
MOLT-4 = system: MOLT-4
UO-31 = system: UO-31
786-0 = system: 786-0
OVCAR-4 = system: OVCAR-4
SN12C = system: SN12C
DU-145 = system: DU-145
HCT-15 = system: HCT-15
TK-10 = system: TK-10
HCC 2998 = system: HCC 2998
SR = system: SR

`NC(Cc1ccccc1)C(=O)O` (stereo not drawn) [DL-PHENYLALANINE] was tested, and the GI50 (HL-60) was > 100 µM (inactive), the GI50 (MDA-N) was > 100 µM (inactive) and the GI50 (MDA-MB-435) was > 100 µM (inactive). For the same compound, the GI50 (UACC-257) was > 100 µM (inactive), the GI50 (U-251) was > 100 µM (inactive) and the GI50 (BT-549) was > 100 µM (inactive). For the same compound, the GI50 (NCI-H460) was > 100 µM (inactive), the GI50 (UACC-62) was > 100 µM (inactive) and the GI50 (SW-620) was > 100 µM (inactive). The GI50 (LOX IMVI) was > 100 µM (inactive), the GI50 (SK-MEL-28) was > 100 µM (inactive) and the GI50 (HOP-62) was > 100 µM (inactive). The GI50 (A549) was > 100 µM (inactive), the GI50 (SF-295) was > 100 µM (inactive) and the GI50 (NCI-H226) was > 100 µM (inactive). The GI50 (K562) was > 100 µM (inactive), the GI50 (Hs-578T) was > 100 µM (inactive) and the GI50 (KM12) was > 100 µM (inactive). For the same compound, the GI50 (CAKI-1) was > 100 µM (inactive), the GI50 (RPMI-8226) was > 100 µM (inactive) and the GI50 (SK-MEL-2) was > 100 µM (inactive). For the same compound, the GI50 (HCT-116) was > 100 µM (inactive), the GI50 (NCI-H23) was > 100 µM (inactive) and the GI50 (SF-539) was > 100 µM (inactive). The GI50 (M14) was > 100 µM (inactive), the GI50 (SNB-75) was > 100 µM (inactive) and the GI50 (SF-268) was > 100 µM (inactive). For the same compound, the GI50 (COLO 205) was > 100 µM (inactive), the GI50 (SK-OV-3) was > 100 µM (inactive) and the GI50 (MDA-MB-231) was > 100 µM (inactive). For the same compound, the GI50 (OVCAR-5) was > 100 µM (inactive), the GI50 (OVCAR-8) was > 100 µM (inactive) and the GI50 (OVCAR-3) was > 100 µM (inactive). The GI50 (A498) was > 100 µM (inactive), the GI50 (RXF 393) was > 100 µM (inactive) and the GI50 (Malme-3M) was > 100 µM (inactive). For the same compound, the GI50 (EKVX) was > 100 µM (inactive), the GI50 (NCI-H522) was > 100 µM (inactive) and the GI50 (HOP-92) was > 100 µM (inactive). The GI50 (T47D) was > 100 µM (inactive), the GI50 (SNB-19) was > 100 µM (inactive) and the GI50 (ACHN) was > 100 µM (inactive). The GI50 (SK-MEL-5) was > 100 µM (inactive), the GI50 (CCRF-CEM) was > 100 µM (inactive) and the GI50 (HT-29) was > 100 µM (inactive). For the same compound, the GI50 (NCI/ADR-RES) was > 100 µM (inactive), the GI50 (PC-3) was > 100 µM (inactive) and the GI50 (IGROV-1) was > 100 µM (inactive). The GI50 (MCF7) was > 100 µM (inactive), the GI50 (MOLT-4) was > 100 µM (inactive) and the GI50 (UO-31) was > 100 µM (inactive). For the same compound, the GI50 (786-0) was > 100 µM (inactive), the GI50 (OVCAR-4) was > 100 µM (inactive) and the GI50 (SN12C) was > 100 µM (inactive). For the same compound, the GI50 (DU-145) was > 100 µM (inactive), the GI50 (HCT-15) was > 100 µM and the GI50 (TK-10) was > 100 µM (inactive). The GI50 (HCC 2998) was > 100 µM (inactive).
`CC(C)(C)[Si](C)(C)OCC1OC(n2cnc3c(N)ncnc32)C(O)C1O` (centres undefined) was tested, and the GI50 (HL-60) was > 100 µM (inactive), the GI50 (MDA-N) was > 100 µM (inactive) and the GI50 (MDA-MB-435) was > 100 µM (inactive). The GI50 (UACC-257) was > 100 µM (inactive), the GI50 (U-251) was > 100 µM (inactive) and the GI50 (BT-549) was 69.5 µM (inactive). The GI50 (NCI-H460) was > 100 µM (inactive), the GI50 (UACC-62) was 22.1 µM (inactive) and the GI50 (SW-620) was > 100 µM (inactive). For the same compound, the GI50 (LOX IMVI) was > 100 µM (inactive), the GI50 (SK-MEL-28) was > 100 µM (inactive) and the GI50 (HOP-62) was > 100 µM (inactive). The GI50 (A549) was > 100 µM (inactive), the GI50 (SF-295) was > 100 µM (inactive) and the GI50 (NCI-H226) was > 100 µM (inactive). The GI50 (K562) was 70.6 µM (inactive), the GI50 (Hs-578T) was 44.5 µM (inactive) and the GI50 (KM12) was 37.3 µM (inactive). For the same compound, the GI50 (CAKI-1) was > 100 µM (inactive), the GI50 (RPMI-8226) was 81.3 µM (inactive) and the GI50 (SK-MEL-2) was > 100 µM (inactive). For the same compound, the GI50 (HCT-116) was > 100 µM (inactive), the GI50 (NCI-H23) was 71 µM (inactive) and the GI50 (SF-539) was > 100 µM (inactive). For the same compound, the GI50 (M14) was > 100 µM (inactive), the GI50 (SNB-75) was 59.8 µM (inactive) and the GI50 (SF-268) was > 100 µM (inactive). The GI50 (COLO 205) was > 100 µM (inactive), the GI50 (SK-OV-3) was 30.7 µM (inactive) and the GI50 (MDA-MB-231) was 96.4 µM (inactive). For the same compound, the GI50 (OVCAR-5) was > 100 µM (inactive), the GI50 (OVCAR-8) was > 100 µM (inactive) and the GI50 (OVCAR-3) was 76 µM (inactive). The GI50 (RXF 393) was 36.7 µM (inactive), the GI50 (Malme-3M) was > 100 µM (inactive) and the GI50 (SR) was 60.8 µM (inactive). For the same compound, the GI50 (EKVX) was > 100 µM (inactive), the GI50 (NCI-H522) was > 100 µM (inactive) and the GI50 (T47D) was 24.4 µM (inactive). The GI50 (SNB-19) was > 100 µM (inactive), the GI50 (ACHN) was > 100 µM (inactive) and the GI50 (SK-MEL-5) was 26.5 µM (inactive). The GI50 (CCRF-CEM) was 95.9 µM (inactive), the GI50 (HT-29) was > 100 µM (inactive) and the GI50 (NCI/ADR-RES) was 87.7 µM (inactive). For the same compound, the GI50 (PC-3) was 43.5 µM (inactive), the GI50 (IGROV-1) was > 100 µM (inactive) and the GI50 (MCF7) was > 100 µM (inactive). The GI50 (MOLT-4) was 39.6 µM (inactive), the GI50 (UO-31) was 65.6 µM (inactive) and the GI50 (786-0) was > 100 µM (inactive). For the same compound, the GI50 (OVCAR-4) was > 100 µM (inactive), the GI50 (SN12C) was > 100 µM (inactive) and the GI50 (DU-145) was > 100 µM (inactive). For the same compound, the GI50 (HCT-15) was > 100 µM and the GI50 (TK-10) was > 100 µM (inactive).
